Molecules are shown by their SMILES.

The target in this test is T1, ALK2 R206H (GST-tagged mutant ALK2) (Homo sapiens, UniProt Q04771, R206H).
T1 construct: purchased Carna Bioscience or ThermoFisher 09-148 or PV6232
T1 sequence (Q04771 21-509 R206H): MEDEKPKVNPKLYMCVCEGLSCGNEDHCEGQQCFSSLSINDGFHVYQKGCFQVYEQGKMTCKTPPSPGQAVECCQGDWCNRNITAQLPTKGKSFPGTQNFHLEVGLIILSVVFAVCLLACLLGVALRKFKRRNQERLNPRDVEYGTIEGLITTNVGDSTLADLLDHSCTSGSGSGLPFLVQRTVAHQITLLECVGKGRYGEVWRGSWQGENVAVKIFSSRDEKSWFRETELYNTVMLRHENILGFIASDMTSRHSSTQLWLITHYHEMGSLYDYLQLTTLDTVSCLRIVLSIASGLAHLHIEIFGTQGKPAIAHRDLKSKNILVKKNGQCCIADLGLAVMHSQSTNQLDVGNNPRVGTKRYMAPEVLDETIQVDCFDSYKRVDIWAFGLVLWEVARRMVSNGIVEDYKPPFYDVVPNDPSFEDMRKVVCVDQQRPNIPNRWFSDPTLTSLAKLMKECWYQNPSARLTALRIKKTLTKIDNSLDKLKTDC
Briefly: ALK binding assay (LANTHASCREEN TR-FRET competitive binding, displacement of Kinase Tracer 178). The settings on record: ALK2 R206H, LANTHASCREEN TR-FRET competitive binding; read-out: Binding Assay (IC50). How it is done: Binding assays were conducted using the LANTHASCREEN® technology (ThermoFisher Scientific). LANTHASCREEN® is a competitive binding, displacement assay where the assumed steady state occupancy of the binding site is measured using a time-resolved, fluorescence energy transfer (TR-FRET) readout between a fluorescent tracer and Europium (Eu)-tagged antibody specific for the kinase or expression tag (e.g. GST) of interest. Displacement of the tracer by a compound of the disclosure reduces, and is directly proportional to, the TR-FRET between the tracer and the antibody. Tracer was used at a concentration equal to or near to its Kd for the kinase.
In all cases, the kinase (2-5 nM) was mixed with Eu-tagged antibody (10 nM) mix and tracer (50 nM) were incubated with test compound titrations prepared in 100% DMSO (1% DMSO final) for 30 minutes at room temperature. All reagents and compounds were dissolved in Kinase Buffer A (ThermoFisher) to achieve the final concentration. […] This readout was normalized to 0% and 100% inhibited control wells, plotted against inhibitor concentration, and fitted to a 4-parameter log dose response curve.
Blank values in the table indicate that the particular compound was not tested in this assay.
(Time-resolved FRET reads energy transfer from a long-lived donor to a nearby acceptor.)
Usually IC50 stands for the concentration needed to halve the response being measured. Regarding `O=C(C1CC1)N1CCN(c2ccnn3cc(-c4c(F)cc(N5CCNCC5)cc4F)cc23)CC1` [Compound 239], the IC50 was less than 10 nM.

As for `O=C(C1CC1)N1CCN(c2ccnn3cc(-c4ccc(N5CCC6(CCNC6)C5)cc4)cc23)CC1` (stereo not shown) [Compound 244], the half-inhibitory concentration (IC50) was less than 10 nM.

On to `O=C(C1CC1)N1CCN(c2ccnn3cc(-c4ccc(OCCN5CCNCC5)cc4)cc23)CC1` [Compound 273, cyclopropyl(4-(6-(4-(2-(piperazin-1-yl)ethoxy)phenyl)pyrrolo[1,2-b]pyridazin-4-yl)piperazin-1-yl)methanone], for which the IC50 was in the range of 10 to 50 nM.

`CCN1CCN(c2ccc(-c3cc4c(N5CCN(C(=O)[C@@H]6C[C@@H]6F)CC5)ccnn4c3)cc2)CC1` [Compound 291]: the IC50 is 10 to 50 nM.

As for `CCN1CCN(c2ccc(-c3cc4c(N5CCN(C(=O)C6(F)CC6)CC5)ccnn4c3)cc2)CC1` [Compound 294], the IC50 fell in the range of 10 to 50 nM.

Regarding `CC(C)N1CCC(c2ccc(-c3cc4c(N5CC6CC(C5)N6C(=O)C5CC5)ccnn4c3)cc2)CC1` [Compound 306], the IC50 lay within 10 to 50 nM.

Consider `CCN1CCC(c2ccc(-c3cc4c(N5CCN(C(=O)C6(C(C)=O)CC6)CC5)ccnn4c3)cc2)C1` (stereo not shown) [Compound 311], for which the IC50 is more than 50 nM.

On to `CCNC(=O)N1CC2CC(C1)N2c1ccnn2cc(-c3ccc(C4CCN(C(C)C)CC4)cc3)cc12` [Compound 319], for which the IC50 is more than 50 nM.

Turning to `CCN1C[C@H]2CN(c3ccnn4cc(-c5ccc(N6CCN(C(C)C)CC6)cc5)cc34)CCN2C1=O` [Compound 331], the half-inhibitory concentration (IC50) is 10 to 50 nM.

For `CCN(C)C(=O)N1CCN(c2ccnn3cc(-c4ccc(C5CCN(C(C)C)CC5)cc4)cc23)CC1` [Compound 342], the IC50 was in the range of 10 to 50 nM.

As for `CCN1CCC(c2ccc(-c3cc4c(N5CCN(C(=O)C6(C(F)F)CC6)CC5)ccnn4c3)cc2)C1` (stereo not shown) [Compound 356], the IC50 lay in the range of 10 to 50 nM.

Take `CCN1CCN(c2cc(F)c(-c3cc4c(N5CCN(C(=O)C6CC6)CC5)ccnn4c3)c(F)c2)CC1` [Compound 362]: the 50% inhibitory concentration (IC50) was 10 to 50 nM.

On to `CCN1CCC(c2ccc(-c3cc4c(N5CCN(C(=O)C6CC6C6CCC6)CC5)ccnn4c3)cc2)C1` (stereo not shown) [Compound 372], for which the IC50 is less than 10 nM.

For `O=C(C1CC1)N1CCN(c2ccnn3cc(-c4ccc(N5CCNCC5C(F)(F)F)cc4)cc23)CC1` (stereo not shown) [Compound 374, cyclopropyl(4-(6-(4-(2-(trifluoromethyl)piperazin-1-yl)phenyl)pyrrolo[1,2-b]pyridazin-4-yl)piperazin-1-yl)methanone], the concentration for half-maximal inhibition (IC50) is 10 to 50 nM.

On to `N#C[C@H]1CC[C@H](C(=O)N2CCN(c3ccnn4cc(-c5ccc(C6CNCC6F)cc5)cc34)CC2)CC1` (stereo partly shown) [Compound 378], for which the IC50 is less than 10 nM.

Turning to `CCN(CC)C(=O)N1CCN(c2ccnn3cc(-c4ccc(C5CCN(C(C)C)CC5)cc4)cc23)CC1` [Compound 392], the half-maximal inhibitory concentration (IC50) was in the range of 10 to 50 nM.

Consider `CCN1CCN(c2ccc(-c3cc4c(N5CCN(C(=O)N6CC(OC)C6)CC5)ccnn4c3)cc2)CC1` [Compound 397], for which the IC50 lay within 10 to 50 nM.

As for `CCN1CCN(c2ccc(-c3cc4c(N5CCN(C(=O)C6CC6)C(C(F)F)C5)ccnn4c3)cc2)CC1` (stereo not shown) [Compound 403, cyclopropyl(2-(difluoromethyl)-4-(6-(4-(4-ethylpiperazin-1-yl)phenyl)pyrrolo[1,2-b]pyridazin-4-yl)piperazin-1-yl)methanone], the half-inhibitory concentration (IC50) was more than 50 nM.

Turning to `CC(C)N1CCC(c2ccc(-c3cc4c(N5CCN(C(=O)C6CC(C#N)C6)CC5)ccnn4c3)cc2)CC1` (stereo not shown) [Compound 405], the IC50 is less than 10 nM.

As for `CCN1CCC(c2ccc(-c3cc4c(N5CCN(C(=O)C6(C(F)(F)F)CC6)CC5)ccnn4c3)cc2)C1` (stereo not shown) [Compound 410], the IC50 is more than 50 nM.

`CC(C)N1CCC(c2ccc(-c3cc4c(N5CCN(C(=O)C6(C7CC7)CC6)CC5)ccnn4c3)cc2)CC1` [Compound 414]: the IC50 fell in the range of 10 to 50 nM.

Consider `CCN1CCN(c2ccc(-c3cc4c(N5CCN(C(=O)N6CC7(COC7)C6)CC5)ccnn4c3)cc2)CC1` [Compound 417], for which the IC50 was 10 to 50 nM.

On to `CCN1CCN(c2ccc(-c3cc4c(N5CCN(C(=O)N6CC(COC)C6)CC5)ccnn4c3)cc2)CC1` [Compound 425], for which the IC50 was more than 50 nM.

For `CCN1CCN(c2ccc(-c3cc4c(N5CCN(C(=O)C6(c7cccnc7)CC6)CC5)ccnn4c3)cc2)CC1` [Compound 433], the IC50 is more than 50 nM.

As to `CCN1CCN(c2ccc(-c3cc4c(N5CCN(C(=O)C6(c7cccs7)CC6)CC5)ccnn4c3)cc2)CC1` [Compound 438], the concentration for half-maximal inhibition (IC50) is 10 to 50 nM.

With `CCN1CCN(c2ccc(-c3cc4c(N5CCN(C(=O)C6(c7ccsc7)CC6)CC5)ccnn4c3)cc2)CC1` [Compound 439], the IC50 lay within 10 to 50 nM.

For the compound `CCN1CCN(c2ccc(-c3cc4c(N5CCN(C(=O)C6(c7nccs7)CC6)CC5)ccnn4c3)cc2)CC1` [Compound 440], the IC50 was more than 50 nM.

Turning to `CCN1CCN(c2ccc(-c3cc4c(N5CCN(C(=O)C6(c7cccc(F)c7)CC6)CC5)ccnn4c3)cc2)CC1` [Compound 443], the IC50 lay within 10 to 50 nM.

On to `CCN1CCC(c2ccc(-c3cc4c(N5CCN(C(=O)C6CC6c6ccc(Cl)cc6)CC5)ccnn4c3)cc2)C1` (stereo not shown) [Compound 444], for which the 50% inhibitory concentration (IC50) was 10 to 50 nM.

Turning to `CCN1CCC(c2ccc(-c3cc4c(N5CCN(C(=O)C6CC(O)(c7ccccc7)C6)CC5)ccnn4c3)cc2)CC1` (stereo not shown) [Compound 446], the IC50 is less than 10 nM.

For the compound `N[C@H]1CCc2cc(-c3cc4c(N5CCN(C(=O)C6CC6)CC5)ccnn4c3)ccc21` [Compound 449], the IC50 is less than 10 nM.

Regarding `O=C(C1CC1)N1CCN(c2ccnn3cc(-c4ccc(C5=CCNCC5)cc4)cc23)CC1` [Compound 458], the IC50 was less than 10 nM.

Take `N[C@H]1CCN(c2ccc(-c3cc4c(N5CCN(C(=O)C6CC6)CC5)ccnn4c3)cc2)C1` [Compound 461]: the IC50 was less than 10 nM.

As to `CC(c1ccc(-c2cc3c(N4CCN(C(=O)C5CC5)CC4)ccnn3c2)cc1)N1CCCC1` (stereo not shown) [Compound 471], the IC50 is more than 50 nM.

Regarding `CC(C)N[C@H]1CCc2cc(-c3cc4c(N5CCN(C(=O)C6CC6)CC5)ccnn4c3)ccc21` [Compound 472], the IC50 is less than 10 nM.

With `CC(C)N1C[C@H](c2ccc(-c3cc4c(N5CCN(C(=O)C6CC6)CC5)ccnn4c3)cc2)C[C@H]1C` [Compound 506], the IC50 is 10 to 50 nM.

Consider `CC(C)N1CCC(c2ncc(-c3cc4c(N5CCN(C(=O)C6CC6)CC5)ccnn4c3)cn2)CC1` [Compound 525], for which the IC50 was less than 10 nM.

Consider `CC(C)N1CCN(c2cnc(-c3cc4c(N5CCN(C(=O)C6CC6)CC5)ccnn4c3)nc2)CC1` [Compound 528], for which the IC50 lay in the range of 10 to 50 nM.

`CC(C)N1CCN(c2cnc(-c3cc4c(N5CCN(C(=O)C6CC6)CC5)ccnn4c3)cn2)CC1` [Compound 529]: the IC50 was less than 10 nM.

In the case of `CCOC(=O)N1CCN(c2ccnn3cc(-c4ccc([C@]5(C)CCCN5C(C)C)cc4)cc23)CC1` [Compound 535], the concentration for half-maximal inhibition (IC50) was less than 10 nM.

With `CCOC(=O)N1CCN(c2ccnn3cc(-c4ccc([C@@]5(C)CCCN5C(C)C)cc4)cc23)CC1` [Compound 536], the half-inhibitory concentration (IC50) is less than 10 nM.

Take `CCNC(=O)N1CCN(c2ccnn3cc(-c4cnc(C5CCN(C(C)C)CC5)nc4)cc23)CC1` [Compound 547]: the IC50 was less than 10 nM.

On to `CCOC(=O)N1CCN(c2ccnn3cc(-c4cnc(C5CCN(C(C)C)CC5)nc4)cc23)CC1` [Compound 552], for which the half-inhibitory concentration (IC50) was less than 10 nM.

Regarding `CCNC(=O)N1CCN(c2ccnn3cc(-c4ncc(N5CCN(C(C)C)CC5)cn4)cc23)CC1` [Compound 553], the IC50 was in the range of 10 to 50 nM.

On to `CCOC(=O)N1CCN(c2ccnn3cc(-c4ncc(N5CCN(C(C)C)CC5)cn4)cc23)CC1` [Compound 555], for which the IC50 was less than 10 nM.

For `CC(C)N1CCN[C@@](C)(c2ccc(-c3cc4c(N5CCN(C(=O)C6CC6)CC5)ccnn4c3)cc2)C1` [Compound 569], the IC50 is less than 10 nM.

As for `CC(C)N1CC=C(c2ccc(-c3cc4c(N5CCN(C(=O)C6CC6)CC5)ccnn4c3)c(F)c2)CC1` [Compound 571], the IC50 is less than 10 nM.

As for `CC(C)N1CCC(c2ccc(-c3cc4c(N5CCN(C(=O)C6COC6)CC5)ccnn4c3)cc2)CC1` [Compound 574], the concentration for half-maximal inhibition (IC50) was less than 10 nM.

As to `CC(C)N1CCC(c2ccc(-c3cc4c(N5CCN(C(=O)C6CC6)CC5)ccnn4c3)c(F)c2)CC1` [Compound 584], the IC50 was less than 10 nM.

Take `COCNC(=O)N1CCN(c2ccnn3cc(-c4ccc(C5CCN(C(C)C)CC5)cc4)cc23)CC1` [Compound 590]: the IC50 was less than 10 nM.

`CCOC(=O)N1CCN(c2ccnn3cc(-c4ccc(C5=CCN(C(C)C)CC5)cc4F)cc23)CC1` [Compound 602]: the concentration for half-maximal inhibition (IC50) was less than 10 nM.

Consider `CC(C)NC(=O)N1CCN(c2ccnn3cc(-c4ccc([C@]5(O)CCN(C(C)C)C5)cn4)cc23)CC1` [Compound 607], for which the IC50 was less than 10 nM.
